Experimental findings from US11319283B2, “Substituted cyclobutylbenzene compounds as indoleamine 2,3-dioxygenase (IDO) inhibitors” (MERCK SHARP & DOHME CORP., priority 2017, dated 2022) are described below.

What all share (type): cell-based
The target of assay [1] is T1, IDO1 (Homo sapiens, UniProt P14902). As to the kind of experiment: IDO1 HEK293 Cellular Assay. Particulars: HEK293 cells transfected with Flag-IDO1 vector, 20-24 hours, fluorescence readout. The method, then: IDO1 HEK293 Cellular Assay
Compounds to be tested were serially diluted in ten 3-fold steps in DMSO starting from 10 mM DMSO stocks. Compound dilutions or DMSO alone were then dispensed from the dilution plate into a Greiner black 384-well assay plate (catalog #781086) using an Echo 550 acoustic liquid handler (Labcyte).
HEK293 cell pellets were resuspended to 5×10^5 cells/mL in complete HEK293 culture media (89% DMEM, 10% FBS, 1% penicillin/streptomycin). Suspended cells (2 mL) were dispensed into each well of a 6-well Corning plate (Catalog #3516). Cells were allowed to attach and were incubated for 20 hours at 37° C. in a 5% CO2 incubator. Flag-IDO1 vector (Genscript True ORF Gold, 2 ug) in 150 uL of Opti-MEM medium was added to each well of a Corning 24 well plate (Cat #3527) and incubated for 5 minutes at room temperature. To each well of the 24-well plate was added […] Lipofectamine 2000 (Gibco) and the plate incubated at room temperature for 20-30 minutes. To each well of attached cells in the 6-well plate, […] of the transfection mix from the 24-well plate was gently added to each well and IDO1 protein was allowed to express for 24-30 hours at 37 degrees Celsius in a 5% CO2 incubator.
Media was removed from the cells which were then washed with 2 mL Dulbecco's phosphate-buffered saline (DPBS). After removal of DPBS, 0.5 mL of TrypLE (Gibco) was added and incubated at 5 minutes until cells lift from the surface of the wells. Complete HEK293 culture media (4 mL) was added to each well and cells were collected and pooled into a conical tube. Cells were pelleted at 200×g for 5 minutes and resuspended in an equal volume of complete DMEM medium. Cells were diluted to 4×10^5 cells per mL in complete HEK293 media. L-Tryptophan was added to give a final concentration of […]. The diluted transfected cells […] or nontransfected cells […] were dispensed into wells of Greiner black 384-well assay plates (catalog #781086) containing previously diluted compounds. The plate is briefly mixed and centrifuged at 200×g for 10 seconds to collect cells at the bottom of the plate. Plates were covered and incubated for 20-24 hours at 37 degrees C. in a 5% CO2 incubator. Afterwards […] of 0.5 M methyl isonipecotate in dimethyl sulfoxide was added to each well, mixed, sealed, and centrifuged at 500 rpm for 10 seconds. Plates were incubated at 37 degrees in a 5% CO2 incubator overnight to develop fluoresence. The plates are allowed to cool and then centrifuged for 1 minute at 1000×g. The resulting fluoresence was measured in an Envision plate reader (Perkin Elmer) with a 400/25 nm excitation filter and an 510/20 nm emission filter.
The fluoresence intensity of each well was corrected for the background observed in wells with untransfected cells and was expressed as a fraction of the intensity observed in wells of IDO1 transfected cells and DMSO only. Potencies were calculated by linear least squares fit to the four parameter logistic IC50 equation.

Another assay deals with T2, TDO (Homo sapiens, UniProt P48775).
T2 construct: endogenous in cells; host or cells: SW48 cells (A2780 cells as control with minimal TDO activity)
Nature of the assay: TDO Cellular Assay in Frozen SW48 Cells. To be noted: 300 uM L-tryptophan, about 48 hours, fluorescence readout. The procedure, abridged:
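SW48 cells in RPMI with 300 uM L-tryptophan were incubated ~48 h at 37° C with compounds in ten 3-fold dilutions. Signal was corrected for A2780 background and normalised to DMSO-only SW48 wells, with IC50 from a four-parameter logistic fit.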

For assay [2], the target named is T1, IDO1. As to the kind of experiment: IDO1 Cellular Assay in Hela Cells Stimulated with IFNγ. Particulars: Hela cells stimulated with IFNγ 100 ng/mL, 300 uM L-tryptophan, about 48 hours, fluorescence readout. Also on record: endogenous in cells; host or cells: HeLa cells stimulated with IFNγ (100 ng/mL). The procedure, abridged: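 HeLa cells with 300 uM L-tryptophan, IFNγ-stimulated (unstimulated cells as max-effect control), exposed to compound (ten 3-fold dilutions) for about 48 h at 37 °C. IC50 by four-parameter logistic fit.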

The target of assay [3] is T1, IDO1. Nature of the assay: IDO1 Human Whole Blood Assay. On the set-up: from tissue; host or cells: human whole blood from healthy donors, stimulated with LPS and IFNγ. To be noted: LPS and IFNγ 100 ng/mL, overnight (18 h), kynurenine by LC/MS/MS. The method, then:
IDO1 Human Whole Blood Assay
Compounds to be tested were serially diluted in ten 3-fold steps in DMSO starting from 10 mM. […] LPS and IFNγ was prepared in RPMI to a 10× of final conc. (1000 ng/mL), final concentration is 100 ng/mL.
Human whole blood was drawn in sodium heparin coated tubes from healthy internal donors. […] of blood was transferred to each of the wells of a v-bottom 96 well plate. […] of compound was transferred from intermediate dilution plate, and incubated for 15 min. 30 μL from stimulants was then transferred to blood and mixed thoroughly. Plate was covered with breathable membrane and incubated at 37° C. for overnight (18 h).
On day 2 isotope labeled standard of kynurenine and tryptophan was made in water at 10× concentration and […] was added to the blood at […] final concentration. The assay plates were centrifuged at 300×G for 10 min with no brake to separate plasma from red blood cells. […] of plasma samples was removed without disturbing red blood cells. Plasma was diluted with RPMI in 1:1 ratio and proteins were precipitated out with two volume of Acetonitrile. The plates was centrifuged at 4000×G for 60 min. 20 mL of supernatant was carefully transferred to a 384 well plate contain 40 mL of 0.1% formic acid in water and analyzed by LC/MS/MS.
LC/MS/MS analyses were performed using Thermo Fisher's LX4-TSQ Quantum Ultra system. This system consists of four Agilent binary high-performance liquid chromatography (HPLC) pumps and a TSQ Quantum Ultra triple quadruple MS/MS instrument. For each sample, […] were injected onto an Atlantis T3 column (2.1 mm×150 mm, […]) from Waters. The mobile phase gradient pumped at 0.8 mL/min was used to elute the analytes from the column at 25° C. […] Mobile phase A consisted of 0.1% formic acid in water. Mobile phase B consisted of 0.1% of formic acid in acetonitrile. Data was acquired in positive mode using a HESI interface. The operational parameters for the TSQ Quantum Ultra instrument were a spray voltage of 4000 V, capillary temperature of 380° C., vaporizer temperature 400° C., shealth gas 60 arbitrary units, Aux gas 20 arbitrary units, tube lens 85 and collision gas 1.2 mTorr. […] The peak area was integrated by Xcalibur Quan software. The ratios between the kynurenine generated in the reaction and 2D6-Kynurenine spiked-in internal standard were used to generate percentage inhibition and IC50 values. Compounds were titrated and IC50's were calculated by 4 parameter sigmoidal curve fitting formula.

T1 sequence (P14902 whole entry): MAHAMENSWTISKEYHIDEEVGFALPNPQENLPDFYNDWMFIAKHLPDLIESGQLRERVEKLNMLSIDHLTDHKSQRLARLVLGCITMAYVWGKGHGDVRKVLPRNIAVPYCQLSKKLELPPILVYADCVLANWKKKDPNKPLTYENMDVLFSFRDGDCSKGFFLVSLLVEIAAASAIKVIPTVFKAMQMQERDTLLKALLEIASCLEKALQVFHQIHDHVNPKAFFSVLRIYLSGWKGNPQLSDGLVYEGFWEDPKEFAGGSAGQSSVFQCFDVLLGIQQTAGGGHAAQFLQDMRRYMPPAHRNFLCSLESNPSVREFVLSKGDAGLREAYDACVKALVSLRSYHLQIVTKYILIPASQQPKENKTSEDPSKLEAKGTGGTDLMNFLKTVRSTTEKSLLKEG
T2 sequence (P48775 whole entry): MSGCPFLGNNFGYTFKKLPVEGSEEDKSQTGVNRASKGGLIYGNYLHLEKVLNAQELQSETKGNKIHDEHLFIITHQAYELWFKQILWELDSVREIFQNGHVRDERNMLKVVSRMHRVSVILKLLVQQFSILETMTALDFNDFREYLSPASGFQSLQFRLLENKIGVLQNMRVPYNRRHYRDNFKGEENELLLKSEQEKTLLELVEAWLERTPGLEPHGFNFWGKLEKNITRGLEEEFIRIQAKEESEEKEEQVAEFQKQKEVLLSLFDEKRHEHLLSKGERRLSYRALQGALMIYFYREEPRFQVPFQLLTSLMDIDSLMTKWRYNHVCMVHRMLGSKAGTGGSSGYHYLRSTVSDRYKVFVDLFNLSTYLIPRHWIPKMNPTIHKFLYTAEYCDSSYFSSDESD

On to `O=C(Nc1ccc(C2(NC(=O)c3cncnc3)CCC2)cc1)c1cccc(Cl)c1` [Example 18, N-(1-{4-[(3-chlorobenzene-1-carbonyl)amino]phenyl}cyclobutyl)pyrimidine-5-carboxamide], for which the IC50 (commonly the midpoint of a concentration-inhibition curve) on IDO1 [1] is 92 nM; against TDO it was at least 10000 nM; against IDO1 [2] it was 92 nM.
For the compound `O=C(Nc1ccc(C2(NC(=O)c3ncco3)CCC2)cc1)c1cccc(Cl)c1` [Example 12, N-(1-{4-[(3-chlorobenzene-1-carbonyl)amino]phenyl}cyclobutyl)-1,3-oxazole-2-carboxamide], the IC50 at IDO1 [1] was determined as 16 nM; against TDO, 585 nM; against IDO1 [2] it was 28 nM.
The corresponding values for `O=C(Nc1ccc(C2(NC(=O)c3cscn3)CCC2)cc1)c1cccc(Cl)c1` [Example 14, N-(1-{4-[(3-chlorobenzene-1-carbonyl)amino]phenyl}cyclobutyl)-1,3-thiazole-4-carboxamide] are 23 nM, 1210 nM and 39 nM.
The corresponding values for `O=C(Nc1ccc(C2(NC(=O)c3nccs3)CCC2)cc1)c1cccc(Cl)c1` [Example 15, N-(1-{4-[(3-chlorobenzene-1-carbonyl)amino]phenyl}cyclobutyl)-1,3-thiazole-2-carboxamide] are 14 nM, 2510 nM and 53 nM.
On to `O=C(Nc1ccc(C2(C(=O)NC3CCCCC3)CCC2)cc1)c1cccc(Cl)c1` [Example 30, 3-chloro-N-{4-[1-(cyclohexylcarbamoyl)cyclobutyl]phenyl} benzamide], for which the IC50 against TDO was at least 10000 nM; on IDO1 [2], 5 nM; at IDO1 [3], 795 nM.
The corresponding values for `O=C(Nc1ccc(C2(NC(=O)c3ccc(Cl)nc3)CCC2)cc1)c1cccc(Cl)c1` [Example 7, 6-chloro-N-(1-{4-[(3-chlorobenzene-1-carbonyl)amino]phenyl}cyclobutyl)pyridine-3-carboxamide] are at least 10000 nM, 4 nM and 345 nM.
The matching figures for `O=C(Nc1ccc(C2(C(=O)Nc3ccc(F)cc3)CC(F)(F)C2)cc1)c1cccc(Cl)c1` [Example 63, 3-chloro-N-(4-(3,3-difluoro-1-((4-fluorophenyl)carbamoyl)cyclobutyl)phenyl)benzamide]: at least 10000 nM, 2 nM and 70 nM.
For `O=C(Nc1ccc(C2(NC(=O)c3ccc(Cl)cc3)CCC2)cc1)c1cncnc1` [Example 17, N-(4-{1-[(4-chlorobenzene-1-carbonyl)amino]cyclobutyl}phenyl)pyrimidine-5-carboxamide], the IC50 against IDO1 [1] is 125 nM; against TDO it was at least 10000 nM; against IDO1 [2] it was 108 nM.
